Reference: ChEMBL document CHEMBL1130163, “Synthesis and inhibition studies of sulfur-substituted squalene oxide analogues as mechanism-based inhibitors of 2,3-oxidosqualene-lanosterol cyclase” (J Med Chem, 1997)
pIC50: −log10 of the molar value.

Target: T1, Lanosterol synthase (Rattus norvegicus, UniProt P48450)
T1 sequence (P48450 whole entry): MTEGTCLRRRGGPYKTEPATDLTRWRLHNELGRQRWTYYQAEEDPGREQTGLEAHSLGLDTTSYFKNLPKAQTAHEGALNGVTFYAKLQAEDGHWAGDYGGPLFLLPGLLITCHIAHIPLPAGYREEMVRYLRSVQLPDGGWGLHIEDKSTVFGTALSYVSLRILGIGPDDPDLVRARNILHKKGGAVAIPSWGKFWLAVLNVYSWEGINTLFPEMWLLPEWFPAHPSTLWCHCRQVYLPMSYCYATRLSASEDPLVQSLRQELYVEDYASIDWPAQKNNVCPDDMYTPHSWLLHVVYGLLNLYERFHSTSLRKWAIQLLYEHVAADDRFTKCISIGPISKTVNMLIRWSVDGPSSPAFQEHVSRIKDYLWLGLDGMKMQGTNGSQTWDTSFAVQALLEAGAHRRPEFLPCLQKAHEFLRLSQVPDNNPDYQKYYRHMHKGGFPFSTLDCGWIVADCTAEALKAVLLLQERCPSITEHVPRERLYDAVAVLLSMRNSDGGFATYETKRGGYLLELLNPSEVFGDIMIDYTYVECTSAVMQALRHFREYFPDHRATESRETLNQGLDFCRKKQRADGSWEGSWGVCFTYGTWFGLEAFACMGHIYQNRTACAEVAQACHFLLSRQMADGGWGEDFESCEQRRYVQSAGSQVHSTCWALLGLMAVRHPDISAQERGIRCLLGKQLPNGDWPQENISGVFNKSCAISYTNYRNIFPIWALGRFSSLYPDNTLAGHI
Test: Inhibition against rat liver Oxidosqualene-lanosterol cyclase

pIC50: 6.96
Compound: CC(C)=CCCC1(C)OC1CC/C(C)=C/CC/C=C(\C)CCCC(C)CCC1OC1C (stereo unspecified)
